Test results taken from patent US8911953B2, “TDF-related compounds and analogs thereof, analogs and bioactive fragments” (Thrasos Innovation, Inc., priority 2005, dated 2014).
No end group written: not given here.

Columns and labels:
[1] = tested on: vascular endothelial cells; experiment: Smad 1, 5 phosphorylation in vascular endothelial cells (Western blot); type: cell-based; conditions: added to vascular endothelial cells in culture
Procedure: (§1) Phosphorylation and nuclear translocation of Smads occurs following the activation of Type I and Type II receptors and subsequent signal transduction to intracellular Smad targets. Phosphorylation and nuclear translocation of R-Smad in HK-2, vascular endothelial, human prostate or other cells by TDFRP compounds is assayed by immuno-fluorescent microscopy methods, using anti-phospho Smad 1/5 antibodies according to the procedure of H Aoki, M Fujii, T Imamura, K Yagi, K Takehara, M Kato and K Miyazono. J. of Cell Sci. 114, 1483-1489, 2001) and by Western blot analysis (FIGS. 2, 3, 18, 2X).
The detection of Smad phosphorylation by Western analysis, for example in LNCaP (prostate cancer cells) or EC (vascular endothelial cells) in culture medium can be examined after exposure to varying concentrations of TDFRP or control compounds. BMP-7 serves as a positive control. Cells are lysed in RIPA lysis buffer (50 mM Tris-HCl at pH 8.0, 150 mM NaCl, 1% NP-40, 0.5% sodium deoxycholate, 0.1% SDS) containing 1 mM PMSF, 1 mM sodium orthovanadate, and 10 ug/mL proteinase inhibitor cocktail. Lysates are incubated on ice for 15 minutes, centrifuged, and transferred supernatant to a clean tube. 50 to 100 ug is used for analysis by SDS-PAGE. Resolved proteins are electro transferred onto PVDF membrane. The blot is blocked by incubating in 3% non-fat dry milk prepared in PBS at room temperature for 1 hour with constant slow agitation. The blot is incubated with 1-2 ug/mL of primary antibody (rabbit anti-phospho-Smad 1) prepared in PBS-milk, overnight with agitation at 4 degree C., washed twice with PBS, and incubated with secondary antibody (anti rabbit HRP conjugated IgG, 1:3000 dilution) at room temperature for 2 hours with agitation. After washing in PBS-0.05% Tween 20 for 5 minutes and rinsing, Smad phosphorylation is detected via an HRP reaction according to manufacturer's instructions (FIGS. 2, 3, 18, 2X).
as §1, with “HK-2” for “HK-2, vascular endothelial, human prostate or other”, “analysis in various cell types” for “analysis”, “27).” for “2X).”
For detection of Smad phosphorylation by Western analysis, LNCaP (prostate cancer cells) or EC (vascular endothelial cells) in culture medium are exposed to varying concentrations of TDFRP or control compounds. BMP-7 served as a positive control. Cells are lysed in RIPA lysis buffer (50 mM Tris-HCl at pH 8.0, 150 mM NaCl, 1% NP-40, 0.5% sodium deoxycholate, 0.1% SDS) containing 1 mM PMSF, 1 mM sodium orthovanadate, and 10 ug/mL proteinase inhibitor cocktail. Lysates are incubated on ice for 15 minutes, centrifuged, and transferred supernatant to a clean tube. 50 to 100 ug is used for analysis by
SDS-PAGE. Resolved proteins are electro transferred onto PVDF membrane. The blot is blocked by incubating in 3% non-fat dry milk prepared in PBS at room temperature for 1 hour with constant slow agitation. The blot is incubated with 1-2 ug/mL of primary antibody (rabbit anti-phospho-Smad 1) prepared in PBS-milk, overnight with agitation at 4 degree C., washed twice with PBS, and incubated with secondary antibody (anti rabbit HRP conjugated IgG, 1:3000 dilution) at room temperature for 2 hours with agitation. After washing in PBS-0.05% Tween 20 for 5 minutes and rinsing, Smad phosphorylation is detected via an HRP reaction according to manufacturer's instructions (FIGS. 3, 27).

[2] = tested on: synovial membrane-derived mesenchymal stem cells; experiment: Chondrogenic differentiation, extracellular matrix deposition by alcian blue staining; type: cell-based
Description: Influence of TDFRP compounds (SEQ ID NO 16, 33, 45, 217, 221) on chondrogenic differentiation of synovial membrane-derived mesenchymal stem cells leading to increased extracellular matrix deposition as determined by alcian blue staining. TDFRP compounds, SEQ ID NO:16, 33, 45, 217, and 221 correspond to Compounds E, A, C, B, and D, respectively.
TDFRP compounds can be used to in the prophylaxis or treatment of diseases of the oral cavity, e.g., by affecting direct capping of bioactive molecules, or inducing the formation of reparative dentin and coronal or radicular pulp mineralization (Goldberg et al., Am J. Dent. 2003 February; 16(1):66-76). Further, TDFRP can be used in the prophylaxis or treatment of periodontal disease. […] TDFRP compounds can be used in the prophylaxis or treatment of traumatic brain injury, e.g., stroke, see, e.g., Cairns and Finkelstein, Phys Med Rehabil Clin N Am. 2003 February; 14(1 Suppl):S135-42). Intravenous administration of BMP-7 after ischemia improves motor function in stroke rats (Chang et al., Stroke. 2003 February; 34(2):558-64) and the TDFRP compounds may protect against or repair reperfusion injury. […] Thrasos compounds that bind to ALK3, a type I receptor for BMP, are therefore analyzed to examine if they induce chondrogenic differentiation leading to extra cellular matrix deposition in synovial membrane-derived mesenchymal stem cells. […]

[3] = tested on: rat osteosarcoma (17/2.8) cells; experiment: Rat osteosarcoma (ROS) cell-based alkaline phosphatase assay; conditions: 0.02-200 uM, 2 days, relative to BMP-7 standard
Procedure: BMP interactions with Type I and Type II receptors can induce alkaline phosphatase activity, a marker for osteoblast activity, in ROS cells. An assay procedure as described in Maliakal, J. C., Asahina, I., Hauschka, P. V., and Sampath, T. K. (1994) Growth factors 11, 227-234, was used to determine the biological activities of TDFRP compounds. In a typical experiment, rat osteosarcoma (17/2.8) cells are plated in 96 well plates (3.0×10^4 cells/well) and incubated overnight at 37 C in 5-6% CO2 incubator. The next day, healthy and confluent cells are treated with increasing concentrations of BMP-7 standard (1-10,000 ng/ml) served as positive control or TDFRP compounds (0.02-200 uM) prepared in medium containing 1% FBS and incubated for 2 days at 37 C in 5-6% CO2 incubator. The cellular content of alkaline phosphatase activity is determined by the method of Reddi and Huggins (Reddi, A. H., and Huggins, C. B (1972) Proc. Natl. Acad. Sci. USA 69, 1601-1605). Enzyme estimations are performed in 96 well plates. Following removal of culture medium, cells are washed with pre-warmed PBS (150 ul) and incubated in 100 ul of pre-warmed 1% Triton X-100 for 30 minutes at 37 C. Plates are centrifuged for 10 minutes at full speed, and recovered samples (15 ul) are assayed for enzyme activity by adding 90 ul p-nitrophenyl phosphate (Sigma) as a substrate in 0.05 M glycine-NaOH buffer, pH 9.3 and incubating for 20 minutes at 37 C. The reaction is stopped by adding 75 ul of 0.2 N NaOH/well and absorbance at 405/490 nm is measured on a Dynatech MR 700 plate reader. Results are expressed as relative activities compared to a BMP-7 standard.
BMP interactions with Type I and Type II receptors can induce alkaline phosphatase activity, a marker for osteoblast activity, in ROS cells. An assay procedure as described earlier (Maliakal, J. C., Asahina, I., Hauschka, P. V., and Sampath, T. K. (1994) Growth factors 11, 227-234) was used to determine the biological activities of TDFRP compounds. In a typical experiment, rat osteosarcoma (17/2.8) cells are plated in 96 well plates (3.0×10^4 cells/well) and incubated overnight at 37° C. in 5-6% CO2 incubator. […] The cellular content of alkaline phosphatase activity is determined by the method of Reddi and Huggins (Reddi, A. H., and Huggins, C. B (1972) Proc. Natl. Acad. Sci. USA 69, 1601-1605). […] The reaction is stopped by adding 75 ul of 0.2 N NaOH/well and absorbance at 405/490 nm is measured on a Dynatech MR 700 plate reader. Results are expressed as relative activities compared to a BMP-7 standard.

Which “phosphorylation and activation of intracellular Smad 1, 5” value (shortened to “phosphorylation and activation”) [1] does the source give for CYFDDSSNVICKRYRS [SEQ ID NO:24] here?
The value was “phosphorylation and activation of intracellular Smad 1, 5”.

With CYFDDSSQVICKKYRS [SEQ ID NO:43] as the substance, how does the “phosphorylation and activation” value [1] read?
The value was “phosphorylation and activation of intracellular Smad 1, 5”.

For CIVNSSDDFLCKKYRS [SEQ ID NO:16], which “phosphorylation and activation” value [1] is on record?
Its value is “phosphorylation and activation of intracellular Smad 1, 5”.

What about the “deposition of the extracellular matrix” value [2] of the same substance?
The value was “significantly increased”.

Which “induction of alkaline phosphatase activity” value (from here on “induction”) [3] does the source give for CYFDDSSKVICKKYRS [SEQ ID NO:130] here?
The value was “did not induce”.

How did the “deposition of the extracellular matrix” value [2] turn out when CYFNDSSQVLCKRYRS [SEQ ID NO:221] was run?
Its value is “significantly increased”.

What about the “induction” value [3] of the same substance?
The value was “did not induce”.

Which “phosphorylation and activation” value [1] does the source give for CYFDDSSSVLCKKYRS [SEQ ID NO:209] here?
Its value is “phosphorylation and activation of intracellular Smad 1, 5”.

How did the “phosphorylation and activation” value [1] turn out when “CYFDDSSNVLCKKYRS-NH2 (not fully specified (bridges); printed as CYFDDSSNVLCKKYRS-NH2; cysteine pairing not given here) [SEQ ID NO:33]” was run?
Its value is “phosphorylation and activation of intracellular Smad 1, 5”.

For CYFNDSSNCLLKKYRS [SEQ ID NO:229], which “phosphorylation and activation” value [1] is on record?
The value was “phosphorylation and activation of intracellular Smad 1, 5”.

Which “induction” value [3] does the source give for CYFDDSSQVLCKKYRS [SEQ ID NO:65] here?
The value was “did not induce”.
